Experiments:
[1] = Rate and extent of dissolution in No. 1 and No. 2 Heating Oils at 25° C. (colorimetric); type: physicochemical; settings: for Percent Dissolved: 25° C.
Experimental: The solubility properties of each of the dyes of Examples 16-41 were evaluated in the fuels No. 1 and No. 2 Heating Oils, respectively. The procedure was as follows:
Where the dyes are solid dyes, excess of pulverized solid dye, far beyond that which would dissolve, i.e., 30 to 35% dye, was added to the respective oils at 25° C. and agitated at constant speed. Samples were removed at 1, 10 and 20 minute intervals, filtered, and the amount of dissolved dye determined colorimetrically.
The tarry non-solid dyes were charged in proportions of 50-60% dye to 50-40% oil rather than 30-35% used for the solid dyes. In fact, it was very difficult to stir the tarry dye-fuel oil mixture at a dye concentration of 50%. Samples for these dyes were taken after 2 minutes. The longer initial time for the tarry dyes was to permit reasonable contact between solvent and the viscous, condensed dye.

[2] = Physical state of the isolated dye; type: physicochemical; settings: after isolation according to Procedure B
Source text: alternatively, the crude liquid dye may be taken up with a volatile solvent and the solvent removed during the drying process to yield a non-volatile liquid colorant.

[3] = No. 1 Fuel Oil, 1 Minute, aminoazotoluene dyes (Table 6)
[4] = No. 1 Fuel Oil, 10 Minutes, aminoazotoluene dyes (Table 6)
[5] = No. 1 Fuel Oil, 20 Minutes, aminoazotoluene dyes (Table 6)
[6] = No. 2 Fuel Oil, 1 Minute, aminoazotoluene dyes (Table 7)
[7] = No. 2 Fuel Oil, 10 Minutes, aminoazotoluene dyes (Table 7)
[8] = No. 2 Fuel Oil, 20 Minutes, aminoazotoluene dyes (Table 7)
[9] = No. 1 Fuel Oil, 1 Minute, aminoazobenzene dyes (Table 4)
[10] = No. 1 Fuel Oil, 10 Minutes, aminoazobenzene dyes (Table 4)
[11] = No. 1 Fuel Oil, 20 Minutes, aminoazobenzene dyes (Table 4)
[12] = No. 2 Fuel Oil, 1 Minute, aminoazobenzene dyes (Table 5)
[13] = No. 2 Fuel Oil, 10 Minutes, aminoazobenzene dyes (Table 5)
[14] = No. 2 Fuel Oil, 20 Minutes, aminoazobenzene dyes (Table 5)

Row | Structure (SMILES) | Percent Dissolved [1, 3] [%] | Percent Dissolved [1, 4] [%] | Percent Dissolved [1, 5] [%] | Percent Dissolved [1, 6] [%] | Percent Dissolved [1, 7] [%] | Percent Dissolved [1, 8] [%] | Physical State of Dye [2] | Percent Dissolved [1, 9] [%] | Percent Dissolved [1, 10] [%] | Percent Dissolved [1, 11] [%] | Percent Dissolved [1, 12] [%] | Percent Dissolved [1, 13] [%] | Percent Dissolved [1, 14] [%] | solubility in fuel oils (in words) ([1]; No. 1 and No. 2 fuel oils)
1 | Cc1ccccc1N=Nc1ccc(N=Nc2c(NC3CCCCC3)ccc3ccccc23)c(C)c1 [Example 34] | 0.82 | 0.87 | 0.94 | 0.99 | 1.05 | 1.09 | Solid | – | – | – | – | – | – | –
2 | CCCCCCCCCCCCNc1ccc2ccccc2c1N=Nc1ccc(N=Nc2ccccc2C)cc1C [Example 41] | 3.29 | 4.04 | 4.50 | 4.48 | 4.68 | 5.21 | Solid | – | – | – | – | – | – | –
3 | CCCCCCCCNc1ccc2ccccc2c1N=Nc1ccc(N=Nc2ccccc2C)cc1C [Example 37] | 1.38 | 1.39 | 1.78 | 2.26 | 2.89 | 2.69 | Solid | – | – | – | – | – | – | –
4 | CCNc1ccc2ccccc2c1N=Nc1ccc(N=Nc2ccccc2C)cc1C [Example 29] | 0.24 | 0.32 | 0.37 | 0.29 | 0.37 | 0.39 | Solid | – | – | – | – | – | – | –
5 | CCCCCCCCNc1ccc2ccccc2c1N=Nc1ccc(N=Nc2ccccc2)cc1 [Example 24] | – | – | – | – | – | – | Solid | 12.05 | 7.26 | 5.96 | 5.48 | 6.25 | 6.25 | –
6 | CCNc1ccc2ccccc2c1N=Nc1ccc(N=Nc2ccccc2)cc1 [Example 16] | – | – | – | – | – | – | Solid | 1.05 | 1.36 | 1.48 | 1.49 | 1.64 | 1.78 | –
7 | CCCCCCCNc1ccc2ccccc2c1N=Nc1ccc(N=Nc2ccccc2C)cc1C [Example 36] | 1.42 | 1.56 | 1.65 | 1.77 | 2.27 | 2.59 | Solid | – | – | – | – | – | – | –
8 | OCCOCCNc1ccc2ccccc2c1N=Nc1ccc(N=Nc2ccccc2)cc1 [Example 19] | – | – | – | – | – | – | Solid | 0.06 | 0.06 | 0.06 | 0.14 | 0.17 | 0.21 | –
9 | CCCCCCNc1ccc2ccccc2c1N=Nc1ccc(N=Nc2ccccc2C)cc1C [Example 33] | 1.31 | 1.28 | 1.27 | 0.93 | 1.01 | 1.11 | Solid | – | – | – | – | – | – | –
10 | CCCCNc1ccc2ccccc2c1N=Nc1ccc(N=Nc2ccccc2)cc1 [Example 17] | – | – | – | – | – | – | Solid | 1.99 | 1.79 | 1.57 | 1.83 | 2.03 | 2.12 | –
11 | CCCCCCCCCCNc1ccc2ccccc2c1N=Nc1ccc(N=Nc2ccccc2C)cc1C [Example 39] | 1.09 | 1.13 | 1.14 | 1.30 | 1.37 | 1.48 | Solid | – | – | – | – | – | – | –
12 | CCCCCCCCCCCCNc1ccc2ccccc2c1N=Nc1ccc(N=Nc2ccccc2)cc1 [Example 28] | – | – | – | – | – | – | Solid | 2.85 | 4.60 | 5.38 | 7.46 | 8.17 | 9.06 | –
13 | CCCCCCNc1ccc2ccccc2c1N=Nc1ccc(N=Nc2ccccc2)cc1 [Example 20] | – | – | – | – | – | – | Solid | 4.65 | 4.47 | 4.35 | 5.12 | 5.12 | 5.27 | –
14 | CCOCCOCCCNc1ccc2ccccc2c1N=Nc1ccc(N=Nc2ccccc2)cc1 [Example 22] | – | – | – | – | – | – | – | 3.68 | – | 3.68 | 0.57 | 0.58 | 0.61 | low solubility in both fuels much like that of a solid dye
15 | COCCCNc1ccc2ccccc2c1N=Nc1ccc(N=Nc2ccccc2C)cc1C [Example 31] | 0.58 | 0.57 | 0.58 | 2.96 | 4.21 | 4.96 | Solid | – | – | – | – | – | – | –
16 | CCCCCCCCCCNc1ccc2ccccc2c1N=Nc1ccc(N=Nc2ccccc2)cc1 [Example 26] | – | – | – | – | – | – | Solid | 4.97 | 5.12 | 5.63 | 6.36 | 7.25 | 8.14 | –
17 | Cc1ccccc1N=Nc1ccc(N=Nc2c(NCCOCCO)ccc3ccccc23)c(C)c1 [Example 32] | 0.09 | 0.12 | 0.13 | 0.20 | 0.15 | 0.15 | Solid | – | – | – | – | – | – | –
18 | CCCCCCCNc1ccc2ccccc2c1N=Nc1ccc(N=Nc2ccccc2)cc1 [Example 23] | – | – | – | – | – | – | Solid | 4.92 | 7.83 | 7.56 | 7.11 | 8.10 | 8.90 | –
19 | COCCCNc1ccc2ccccc2c1N=Nc1ccc(N=Nc2ccccc2)cc1 [Example 18] | – | – | – | – | – | – | Solid | 2.02 | 3.15 | 3.57 | 0.66 | 0.68 | 0.73 | –
20 | c1ccc(N=Nc2ccc(N=Nc3c(NC4CCCCC4)ccc4ccccc34)cc2)cc1 [Example 21] | – | – | – | – | – | – | Solid | 4.01 | 2.25 | 2.30 | 3.10 | 3.10 | 3.21 | –
21 | CCCCNc1ccc2ccccc2c1N=Nc1ccc(N=Nc2ccccc2C)cc1C [Example 30] | 0.19 | 0.26 | 0.26 | 0.27 | 0.29 | 0.35 | Solid | – | – | – | – | – | – | –
22 | CCOCCOCCCNc1ccc2ccccc2c1N=Nc1ccc(N=Nc2ccccc2C)cc1C [Example 35] | 5.33 | 6.23 | 7.40 | 3.70 | – | 3.97 | Solid | – | – | – | – | – | – | –
